17 molecules from US12678434B2, “Compositions and methods for modulating ACE2 receptor” (priority 2020, dated 2026) can be followed below.

In assay [1] the target is T1, Human recombinant ACE2 (Homo sapiens, UniProt Q9BYF1).
T1 construct: purchased R&D systems, Minneapolis, USA
It counts as biochemical.

Assay [2] has as its system SARS-CoV-2. Description: Medication use in COVID-19 positive and negative patients (retrospective propensity-score-matched study of hospitalized patients). It counts as in vivo, human. The note with it: for difference in SARS-CoV-2 infection rates between drug use and no drug use: PS-matched groups, significance defined as p<0.05; for SARS-CoV-2 Positive Test Result, percentage of patients (infection rate): drug use group of PS-matched sample, hospitalized patients Jan. 1, 2020 to Dec. 30, 2020.

In assay [3] the test system is VERO-E6 cells. It counts as cell-based, monkey. The following applies: 100 μM drug for 6 hours without FBS, then spike protein (30 ug) for 12 hours.
Setting [4] is: SARS-CoV-2 positive patients, drug use group, PS-matched.
The mark [5] stands for this setting: patients who tested positive in PS-matched sample.

Entries after “also recorded” stand apart in the source; their conditions may differ.

T1 sequence (Q9BYF1 18-740 limits assumed): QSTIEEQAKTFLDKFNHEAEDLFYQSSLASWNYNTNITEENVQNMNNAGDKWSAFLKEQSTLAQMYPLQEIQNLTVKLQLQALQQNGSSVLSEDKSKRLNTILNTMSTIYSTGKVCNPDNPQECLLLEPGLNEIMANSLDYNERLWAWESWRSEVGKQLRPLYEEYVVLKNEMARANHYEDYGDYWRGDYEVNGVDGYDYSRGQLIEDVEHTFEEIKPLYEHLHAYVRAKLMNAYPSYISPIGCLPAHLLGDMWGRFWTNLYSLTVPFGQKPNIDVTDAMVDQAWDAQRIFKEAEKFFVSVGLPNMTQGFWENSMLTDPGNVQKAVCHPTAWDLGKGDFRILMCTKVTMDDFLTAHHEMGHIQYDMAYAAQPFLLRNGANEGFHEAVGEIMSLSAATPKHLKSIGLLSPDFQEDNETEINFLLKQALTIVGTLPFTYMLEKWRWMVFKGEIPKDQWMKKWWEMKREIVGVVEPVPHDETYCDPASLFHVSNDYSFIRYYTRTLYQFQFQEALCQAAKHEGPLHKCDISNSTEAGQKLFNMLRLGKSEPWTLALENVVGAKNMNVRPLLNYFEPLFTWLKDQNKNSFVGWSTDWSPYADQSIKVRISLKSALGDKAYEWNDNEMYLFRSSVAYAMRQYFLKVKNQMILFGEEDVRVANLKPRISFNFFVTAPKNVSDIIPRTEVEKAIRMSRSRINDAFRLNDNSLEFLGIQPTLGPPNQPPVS

Take `O=C(O)COCCN1CCN([C@@H](c2ccccc2)c2ccc(Cl)cc2)CC1` [S-Cetirizine, dextrocetirizine]: the “fluorescence signal (ACE2 activity) upon further addition of drug” value (from here on “fluorescence signal”) in assay [1] is on record as “further decreased”.
Consider `OCCOCCN1CCN(C(c2ccccc2)c2ccc(Cl)cc2)CC1` (centres unmarked) [Hydroxyzine], for which, in assay [2], the “difference in SARS-CoV-2 infection rates between drug use and no drug use” value is given as “statistically significantly different”; the “SARS-CoV-2 Positive Test Result, percentage of patients (infection rate)” value came to 12.62%. Besides, in assay [2] (listed as hydroxyzine), the “difference in SARS-CoV-2 infection rates between drug use and no drug use” value was “significant difference; also recorded: lower infection rates”. Further, in assay [2] (setting [4]), the “ICU Admission, number of patients” value was determined as 5; the “ICU Admission, percentage of patients” value is 19.23%; the “ICU LOS (length of stay), mean (standard deviation)” value is on record as 22.4 (26.43). Also, the “Odds Ratio for SARS-CoV-2 infection” value in assay [2] (multiple logistic regression model, drug use as covariate, PS-matched sample) is 0.919. In assay [2] (setting [5]), the “difference in ICU admission rates between drug use and no drug use” value is “not a significant difference”; the “difference in ICU length of stay between drug use and no drug use” value is “not a significant difference”. The “spike protein in the cell lysate (western blot)” value (“spike protein in the cell lysate” below) in assay [3] is “no spike protein”. In addition, the “fluorescence signal” value in assay [1] is “increased”.
Turning to `NC(N)=Nc1nc(CSCCC(N)=NS(N)(=O)=O)cs1` [Famotidine], the “SARS-CoV-2 Positive Test Result, percentage of patients (infection rate)” value in assay [2] turned out to be 18.87%.
In the case of `CN1CCC[C@H](n2nc(Cc3ccc(Cl)cc3)c3ccccc3c2=O)CC1` [S-Azelastine], in assay [1], the “concentration at transition point from inhibiting to activating the ACE2 receptor” value is 1 µM.
Turning to `CCOC(=O)N1CCC(=C2c3ccc(Cl)cc3CCc3cccnc32)CC1` [Loratadine], the “SARS-CoV-2 Positive Test Result, percentage of patients (infection rate)” value in assay [2] turned out to be 18.65%.
Consider `CN(C)CCOC(c1ccccc1)c1ccccc1` [Diphenhydramine], for which, in assay [2], the “SARS-CoV-2 Positive Test Result, percentage of patients (infection rate)” value turned out to be 12.8%. The “spike protein in the cell lysate” value in assay [3] is on record as “no spike protein”. Besides, in assay [1], the “concentration at transition point from inhibiting to activating the ACE2 receptor” value came to 1 µM.
On to `CC(C)(C(=O)O)c1ccc(C(O)CCCN2CCC(C(O)(c3ccccc3)c3ccccc3)CC2)cc1` (centres unmarked) [Fexofenadine], for which, in assay [2], the “SARS-CoV-2 Positive Test Result, percentage of patients (infection rate)” value is reported as 18.92%.
Still for that read-out and setting: for `CN/C(=N/CCSCc1nc[nH]c1C)NC#N` [Cimetidine] the value was 35.71%.
`CN1CCC[C@@H](n2nc(Cc3ccc(Cl)cc3)c3ccccc3c2=O)CC1` [R-Azelastine]: in assay [3], the “spike protein in the cell lysate” value is “no spike protein”. The “concentration at transition point from inhibiting to activating the ACE2 receptor” value in assay [1] came out at 1 µM.
As to `CNC(=C[N+](=O)[O-])NCCSCc1ccc(CN(C)C)o1` [Ranitidine], the “SARS-CoV-2 Positive Test Result, percentage of patients (infection rate)” value in assay [2] was determined as 15.29%.
Turning to `CN1CCC(=C2c3ccccc3CC(=O)c3sccc32)CC1` [Ketotifen], the “SARS-CoV-2 Positive Test Result, percentage of patients (infection rate)” value in assay [2] was 0 (0%).
With `CN1CCCC(n2nc(Cc3ccc(Cl)cc3)c3ccccc3c2=O)CC1` (centres unmarked) [Azelastine], the “SARS-CoV-2 Positive Test Result, percentage of patients (infection rate)” value in assay [2] was found to be 7.69%.
For `O=C(O)COCCN1CCN([C@H](c2ccccc2)c2ccc(Cl)cc2)CC1` [Levocetirizine, levocetirizine], the “SARS-CoV-2 Positive Test Result, percentage of patients (infection rate)” value in assay [2] is given as 15.38%. For the same molecule, the “spike protein in the cell lysate” value in assay [3] was “no spike protein”. Besides, the “fluorescence signal” value in assay [1] was “further decreased”.
For `O=C(O)COCCN1CCN(C(c2ccccc2)c2ccc(Cl)cc2)CC1` (centres unmarked) [Cetirizine], the “SARS-CoV-2 Positive Test Result, percentage of patients (infection rate)” value in assay [2] is reported as 17.97%.
Take `CN(C)CCC(c1ccc(Br)cc1)c1ccccn1` (centres unmarked) [Brompheniramine]: the “SARS-CoV-2 Positive Test Result, percentage of patients (infection rate)” value in assay [2] is listed as 33.33%.
In the case of `CN(C)CCC(c1ccc(Cl)cc1)c1ccccn1` (centres unmarked) [Chlorpheniramine], the “SARS-CoV-2 Positive Test Result, percentage of patients (infection rate)” value in assay [2] worked out at 16.67%.
As for `CN(C)CC/C=C1/c2ccccc2COc2ccc(CC(=O)O)cc21` [Olopatadine], in assay [2], the “SARS-CoV-2 Positive Test Result, percentage of patients (infection rate)” value is listed as 18.75%.
